The source made the active and inactive calls. No cut-off for these calls is given here.
Columns and labels:
P338 [1] = test: Antitumor activity against P-338 leukemia in mice.; assay type: functional, Mus musculus
P338 [2] = test: Compound was evaluated for antitumor activity against P-338 leukemia in mice, active dose range of the compound; Lowest dose administered, dose range was 2.5-40 mg/kg; assay type: functional, Mus musculus
L1210 leukemia (mouse) [3] = test: Compound was evaluated for antitumor activity against L1210 leukemia in mice at the dose of 40 mg/kg; T/C=Survival time of treated/control animals*100
P338 [4] = test: Compound was evaluated for antitumor activity against P-338 leukemia in mice, active dose range of the compound; Lowest dose to highest dose administered, dose range was 2.5-40 mg/kg; assay type: functional, Mus musculus
P338 [5] = test: Compound was evaluated for antitumor activity against P-338 leukemia in mice at the dose of 32 mg/kg; T/C=Survival time of treated/control animals*100; assay type: functional, Mus musculus
P338 [6] = test: Compound was evaluated for antitumor activity against P-338 leukemia in mice.a ctive dose range was 8-32 mg/kg; assay type: functional, Mus musculus
P338 [7] = test: Compound was evaluated for antitumor activity against P-338 leukemia in mice at the dose of 16 mg/kg; T/C=Survival time of treated/control animals*100; assay type: functional, Mus musculus
P338 [8] = test: Compound was evaluated for antitumor activity against P-338 leukemia in mice, active dose range of the compound; Lowest dose to highest dose administered, dose range was 2-32 mg/kg; assay type: functional, Mus musculus
P338 [9] = test: Compound was evaluated for antitumor activity against P-338 leukemia in mice at the dose of 1.6 mg/kg; T/C=Survival time of treated/control animals*100; assay type: functional, Mus musculus
P338 [10] = test: Compound was evaluated for antitumor activity against P-338 leukemia in mice, active dose range of the compound; Lowest dose administered, dose range was 0.4-1.6 mg/kg; assay type: functional, Mus musculus
P338 [11] = test: Compound was evaluated for antitumor activity against P-338 leukemia in mice, active dose range of the compound; Lowest dose administered, dose range was 1.25-2.5 mg/kg; assay type: functional, Mus musculus
L1210 leukemia (mouse) [12] = test: Compound was evaluated for antitumor activity against L1210 leukemia in mice at the dose of 2.5 mg/kg; T/C=Survival time of treated/control animals*100
P338 [13] = test: Compound was evaluated for antitumor activity against P-338 leukemia in mice at the dose of 20 mg/kg; T/C=Survival time of treated/control animals*100; assay type: functional, Mus musculus
P338 [14] = test: Compound was evaluated for antitumor activity against P-338 leukemia in mice, active dose range of the compound; Lowest dose to highest dose administered, dose range was 5-40 mg/kg; assay type: functional, Mus musculus
L1210 leukemia (mouse) [15] = test: Antitumor activity against L1210 leukemia in mice
P338 [16] = test: Compound was evaluated for antitumor activity against P-338 leukemia in mice; T/C=Survival time of treated/control animals*100; Inactive; assay type: functional; details: Mus musculus
P338 [17] = test: Compound was evaluated for antitumor activity against P-338 leukemia in mice, active dose range of the compound; Lowest dose to highest dose administered, dose range was 7.5-60 mg/kg; assay type: functional, Mus musculus
P338 [18] = test: Compound was evaluated for antitumor activity against P-338 leukemia in mice at the dose of 60 mg/kg; T/C=Survival time of treated/control animals*100; assay type: functional, Mus musculus
P338 [19] = test: Compound was evaluated for antitumor activity against P-338 leukemia in mice, active dose range of the compound; Lowest dose administered, dose range was 7.5-15.5 mg/kg; assay type: functional, Mus musculus
P338 [20] = test: Compound was evaluated for antitumor activity against P-338 leukemia in mice at the dose of 25 mg/kg; T/C=Survival time of treated/control animals*100; assay type: functional, Mus musculus
P338 [21] = test: Compound was evaluated for antitumor activity against P-338 leukemia in mice. toxic dose range of the compound; Highest dose administered; assay type: functional, Mus musculus
P338 [22] = test: Compound was evaluated for antitumor activity against P-338 leukemia in mice, active dose range of the compound; Lowest dose administered, dose range was 3.12-25 mg/kg; assay type: functional, Mus musculus
P338 [23] = test: Compound was evaluated for antitumor activity against P-338 leukemia in mice, active dose range of the compound; Lowest dose administered, dose range was 4-16 mg/kg; assay type: functional, Mus musculus
P338 [24] = test: Compound was evaluated for antitumor activity against P-338 leukemia in mice at the dose of 8 mg/kg; T/C=Survival time of treated/control animals*100; assay type: functional, Mus musculus
P338 [25] = test: Compound was evaluated for antitumor activity against P-338 leukemia in mice; T/C=Survival time of treated/control animals *100; Inactive; assay type: functional; details: Mus musculus
P338 [26] = test: Compound was evaluated for antitumor activity against P-338 leukemia in mice at the dose of 2 mg/kg; T/C=Survival time of treated/control animals*100; assay type: functional, Mus musculus
P338 [27] = test: Compound was evaluated for antitumor activity against P-338 leukemia in mice, active dose range of the compound; Lowest dose administered, dose range was 2.0-4.0 mg/kg; assay type: functional, Mus musculus
L1210 leukemia (mouse) [28] = test: Compound was evaluated for antitumor activity against L1210 leukemia in mice, active dose range of the compound; Lowest dose administered, dose range was 2.5-5 mg/kg
P338 [29] = test: Compound was evaluated for antitumor activity against P-338 leukemia in mice at the dose of 4 mg/kg; T/C=Survival time of treated/control animals*100; assay type: functional, Mus musculus
P338 [30] = test: Compound was evaluated for antitumor activity against P-338 leukemia in mice at the dose of 3.1 mg/kg; T/C=Survival time of treated/control animals*100; assay type: functional, Mus musculus
P338 [31] = test: Compound was evaluated for antitumor activity against P-338 leukemia in mice, toxic dose range of the compound; assay type: functional, Mus musculus
P338 [32] = test: Compound was evaluated for antitumor activity against P-338 leukemia in mice, active dose range of the compound; Lowest dose administered, dose range was 0.4-3.1 mg/kg; assay type: functional, Mus musculus
L1210 leukemia (mouse) [33] = test: Compound was evaluated for antitumor activity against L1210 leukemia in mice at the dose of 10 mg/kg; T/C=Survival time of treated/control animals*100
L1210 leukemia (mouse) [34] = test: Compound was evaluated for antitumor activity against L1210 leukemia in mice, active dose range of the compound; Lowest dose administered, dose range was 2.5-20 mg/kg

CC[C@@]1(O)C(=O)OCc2c1cc1n(c2=O)Cc2cc3cccc([N+](=O)[O-])c3nc2-1
No. of cures (P338 [1]): 0 | Active dose range (P338 [2]): 2.5 mg/kg | T/C (L1210 leukemia (mouse) [3]): 151%

CC[C@@]1(O)C(=O)OCc2c1cc1n(c2=O)Cc2cc3c(NC(C)=O)c(O)ccc3nc2-1
No. of cures (P338 [1]): 0 | Active dose range (P338 [4]): 2.5 mg/kg | T/C (L1210 leukemia (mouse) [3]): 220%

CCC1(O)C(=O)OCc2c1cc1n(c2=O)Cc2cc3cccnc3nc2-1 (stereo not drawn)
T/C (P338 [5]): 175% | Active dose range (P338 [6]): 8 mg/kg | No. of cures (P338 [1]): 0

CCN(CC)CCOc1ccc2nc3c(cc2c1)Cn1c-3cc2c(c1=O)COC(=O)[C@]2(O)CC.Cl
T/C (P338 [7]): 183% | No. of cures (P338 [1]): 0 | Active dose range (P338 [8]): 2 mg/kg

CC[C@@]1(O)C(=O)OCc2c1cc1n(c2=O)Cc2cc3cc(OC)ccc3nc2-1
T/C (P338 [9]): 167% | No. of cures (P338 [1]): 0 | Active dose range (P338 [10]): 0.4 mg/kg

CCC1(O)C(=O)OCc2c1cc1n(c2=O)Cc2cc3cnccc3nc2-1 (stereo not drawn)
No. of cures (P338 [1]): 0 | Active dose range (P338 [11]): 1.25 mg/kg | T/C (L1210 leukemia (mouse) [12]): 162%

CC[C@@]1(O)C(=O)OCc2c1cc1n(c2=O)Cc2cc3c([N+](=O)[O-])c(OC)ccc3nc2-1
No. of cures (P338 [1]): 0 | Active dose range (P338 [4]): 2.5 mg/kg | T/C (L1210 leukemia (mouse) [3]): 160%

CC[C@@]1(O)C(=O)OCc2c1cc1n(c2=O)Cc2cc3c(N)c(OC)ccc3nc2-1
No. of cures (P338 [1]): 0 | T/C (L1210 leukemia (mouse) [3]): 186%

CC[C@@]1(O)C(=O)OCc2c1cc1n(c2=O)Cc2cc3c([N+](=O)[O-])c(O)ccc3nc2-1
T/C (P338 [13]): 131% | No. of cures (P338 [1]): 0 | Active dose range (P338 [4]): 2.5 mg/kg

CCC1(O)C(=O)OCc2c1cc1n(c2=O)Cc2cc3cc(NC(C)=O)ccc3nc2-1 (stereo not drawn)
No. of cures (P338 [1]): 1 | Active dose range (P338 [14]): 5 mg/kg | KE (log cell kill) (L1210 leukemia (mouse) [15]): > 5.86 | T/C (L1210 leukemia (mouse) [3]): 318%

CC[C@](O)(C(=O)[O-])c1cc2n(c(=O)c1CO)Cc1cc3ccccc3nc1-2.[Na+]
T/C (L1210 leukemia (mouse) [3]): 215%

CC[C@@]1(O)C(=O)OCc2c1cc1n(c2=O)Cc2cc3cc(OCC(=O)O)ccc3nc2-1
T/C (P338 [16]): inactive

CC[C@@]1(O)C(=O)OCc2c1cc1n(c2=O)Cc2cc3cccc(N)c3nc2-1
T/C (P338 [16]): inactive

CCC1(O)C(=O)OCc2c1cc1n(c2=O)Cc2cc3ccc(O)cc3nc2-1 (racemic)
Active dose range (P338 [17]): 7.5 mg/kg | No. of cures (P338 [1]): 3 | T/C (P338 [18]): 357%

CCC1(O)C(=O)OCc2c1cc1n(c2=O)Cc2cc3cc([N+](=O)[O-])ccc3nc2-1 (racemic)
No. of cures (P338 [1]): 1 | Active dose range (P338 [19]): 7.5 mg/kg | KE (log cell kill) (L1210 leukemia (mouse) [15]): > 5.86

CCC1(O)C(=O)OCc2c1cc1n(c2=O)Cc2cc3sccc3nc2-1 (racemic)
T/C (P338 [20]): 193% | No. of cures (P338 [1]): 0 | Toxic dose (P338 [21]): 50 mg/kg | Active dose range (P338 [22]): 3.12 mg/kg

CCC1(O)C(=O)OCc2c1cc1n(c2=O)Cc2cc3cc(N)ccc3nc2-1 (racemic)
No. of cures (P338 [1]): 3 | Toxic dose (P338 [21]): 32 mg/kg | Active dose range (P338 [23]): 4 mg/kg | T/C (P338 [24]): 329% | KE (log cell kill) (L1210 leukemia (mouse) [15]): > 5.86

CCC1(O)C(=O)OCc2c1cc1n(c2=O)Cc2cc3cc(OC)c(OC)cc3nc2-1 (racemic)
Toxic dose (P338 [21]): >50 mg/kg | T/C (P338 [25]): inactive

CCC1(O)C(=O)OCc2c1cc1n(c2=O)Cc2cc3cc4c(cc3nc2-1)OCO4 (racemic)
T/C (P338 [26]): 325% | No. of cures (P338 [1]): 2 | Active dose range (P338 [27]): 2 mg/kg | KE (log cell kill) (L1210 leukemia (mouse) [15]): > 5.97

CC[C@@]1(O)C(=O)OCc2c1cc1n(c2=O)Cc2cc3c(N)cccc3nc2-1 [9-AMINOCAMPTOTHECIN]
No. of cures (P338 [1]): 4 | KE (log cell kill) (L1210 leukemia (mouse) [15]): > 5.86 | T/C (L1210 leukemia (mouse) [12]): 348% | Active dose range (L1210 leukemia (mouse) [28]): 2.5 mg/kg

CC[C@@]1(O)C(=O)OCc2c1cc1n(c2=O)Cc2cc3ccccc3nc2-1 [CAMPTOTHECIN]
T/C (P338 [29]): 197%

CC[C@@]1(O)C(=O)OCc2c1cc1n(c2=O)Cc2cc3cc(O)ccc3nc2-1 [HYDROXYCAMPTOTHECIN]
T/C (P338 [30]): 297% | No. of cures (P338 [1]): 0 | Toxic dose (P338 [31]): 6.25 mg/kg | Active dose range (P338 [32]): 0.4 mg/kg

CC[C@@]1(O)C(=O)OCc2c1cc1n(c2=O)Cc2cc3c([N+](=O)[O-])cccc3nc2-1 [RUBITECAN]
No. of cures (P338 [1]): 5 | Toxic dose (P338 [21]): 40 mg/kg | KE (log cell kill) (L1210 leukemia (mouse) [15]): > 5.86 | T/C (L1210 leukemia (mouse) [33]): 348% | Active dose range (L1210 leukemia (mouse) [34]): 2.5 mg/kg

Source: ChEMBL document CHEMBL1123368, “Plant antitumor agents. 23. Synthesis and antileukemic activity of camptothecin analogues” (1986)
